Where two headings read alike, the source gives them in different places.
Key:
[1] = target: T1, KPC-2 (Klebsiella pneumoniae, UniProt Q9F663); experiment: β-Lactamase inhibitory activity (nitrocefin hydrolysis), KPC-2; format: biochemical; conditions: KPC-2 0.5 nM, 100 μM nitrocefin, pre-incubation 30° C. 10 minutes
T1 construct: AmpC, TEM-1, KPC-2 or OXA-2 domain excluding signal peptide was amplified with PCR; made in house; host or cells: Escherichia coli BL21 (DE3), pET-28b(+)

[2] = target: T2, TEM-1 (Escherichia coli, UniProt P62593); experiment: β-Lactamase inhibitory activity (nitrocefin hydrolysis), TEM-1; format: biochemical; conditions: TEM-1 0.1 nM, 100 μM nitrocefin, pre-incubation 30° C. 10 minutes
T2 construct: AmpC, TEM-1, KPC-2 or OXA-2 domain excluding signal peptide was amplified with PCR; made in house; host or cells: Escherichia coli BL21 (DE3), pET-28b(+)
T2 sequence (P62593 24-286 limits assumed): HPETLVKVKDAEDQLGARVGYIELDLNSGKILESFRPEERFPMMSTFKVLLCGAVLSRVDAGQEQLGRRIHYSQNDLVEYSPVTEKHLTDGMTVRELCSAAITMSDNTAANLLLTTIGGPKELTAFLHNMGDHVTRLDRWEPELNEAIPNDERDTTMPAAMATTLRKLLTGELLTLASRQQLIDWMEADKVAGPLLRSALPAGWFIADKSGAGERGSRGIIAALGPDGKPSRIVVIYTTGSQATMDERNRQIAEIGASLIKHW
Method: Using Pseudomonas aeruginosa ATCCBAA-47 genome, plasmid pBR322, Klebsiella pneumoniae ATCCBAA-1705, and P. aeruginosa MSC17696 as a template, each DNA for encoding β-lactamase, AmpC, TEM-1, KPC-2 or OXA-2 domain excluding signal peptide was amplified with PCR. Each of the PCR product was incorporated into pET-28b(+)vector (Merck), introduced into Escherichia coli BL21 (DE3) (Merck), and, under induction of 1 mM isopropyl-β-D-(−)-thiogalactopyranoside (Nacalai Tesque), cultured overnight at 20° C. to express AmpC, TEM-1, KPC-2, and OXA-2. After the bacterial cell was collected, AmpC was purified from the cell extract obtained by ultrasonic treatment, using CM Sepharose Fast Flow (GE Healthcare) and HiTrap Heparin HP (GE Healthcare) at 4° C. TEM-1 was purified with HiTrap SPHP (GE Healthcare), HiTrap Q (GE Healthcare) and Mono Q (GE Healthcare), and KPC-2 was purified with HiTrap SPHP. OXA-2 was purified with HiTrap SPHP and HiTrap Heparin HP.
For the measurement of β-lactamase inhibitory activity, 100 μM (final concentration) nitrocefin (Oxoid) was used as a substrate, and 2.5% DMSO, 10 μg/mL bovine serum derived albumin (Sigma-Aldrich) and 50 mM phosphate buffer at pH 7.0 were used as a reaction solution. […] Nitrocefin was added to each well to be mixed therein, followed by incubation at 30° C. for 20 minutes, and Multiscan Ascent (Thermo Fisher Scientific) was used to measure 492 nm wavelength, thereby measuring nitrocefin hydrolytic activity of β-Lactamase, to determine enzyme inhibitory activity. […] As the inhibitory activity strength, less than 0.1 μM, less than 1 μM, less than 3 μM, less than 10 μM, and 10 μM or more were shown with A, B, C, D, and E respectively.

[3] = target: T3, AmpC (Pseudomonas aeruginosa, UniProt P24735); experiment: biochemical
T3 construct: AmpC, TEM-1, KPC-2 or OXA-2 domain excluding signal peptide was amplified with PCR; made in house; host or cells: Escherichia coli BL21 (DE3), pET-28b(+)
T3 sequence (P24735 27-397): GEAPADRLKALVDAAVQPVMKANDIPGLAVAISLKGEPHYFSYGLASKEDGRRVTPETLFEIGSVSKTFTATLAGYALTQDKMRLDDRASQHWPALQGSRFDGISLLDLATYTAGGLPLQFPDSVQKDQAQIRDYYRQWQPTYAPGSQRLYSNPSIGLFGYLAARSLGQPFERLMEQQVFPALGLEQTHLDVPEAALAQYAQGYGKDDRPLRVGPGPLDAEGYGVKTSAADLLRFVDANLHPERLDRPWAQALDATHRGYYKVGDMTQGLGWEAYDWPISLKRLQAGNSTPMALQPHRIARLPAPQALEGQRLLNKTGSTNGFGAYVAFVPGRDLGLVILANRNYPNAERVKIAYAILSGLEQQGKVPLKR

[4] = target: T4, OXA-2 (Escherichia coli, UniProt P0A1V9); experiment: biochemical; parameters: species or system P. aeruginosa
T4 construct: AmpC, TEM-1, KPC-2 or OXA-2 domain excluding signal peptide was amplified with PCR; made in house; host or cells: Escherichia coli BL21 (DE3), pET-28b(+)
T4 sequence (P0A1V9 22-275): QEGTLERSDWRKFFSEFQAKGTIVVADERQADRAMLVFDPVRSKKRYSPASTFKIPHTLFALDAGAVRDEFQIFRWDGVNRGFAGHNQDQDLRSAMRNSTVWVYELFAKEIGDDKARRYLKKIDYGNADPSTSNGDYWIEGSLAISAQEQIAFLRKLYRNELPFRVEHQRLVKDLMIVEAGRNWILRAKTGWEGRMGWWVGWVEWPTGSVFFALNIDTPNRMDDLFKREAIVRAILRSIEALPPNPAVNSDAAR

[5] = OXA-2 2 nM, 100 μM nitrocefin, pre-incubation 30° C. 10 minutes, read-out: β-Lactamase inhibitory activity OXA-2 (IC50)

T1 sequence (Q9F663 25-293, looked up): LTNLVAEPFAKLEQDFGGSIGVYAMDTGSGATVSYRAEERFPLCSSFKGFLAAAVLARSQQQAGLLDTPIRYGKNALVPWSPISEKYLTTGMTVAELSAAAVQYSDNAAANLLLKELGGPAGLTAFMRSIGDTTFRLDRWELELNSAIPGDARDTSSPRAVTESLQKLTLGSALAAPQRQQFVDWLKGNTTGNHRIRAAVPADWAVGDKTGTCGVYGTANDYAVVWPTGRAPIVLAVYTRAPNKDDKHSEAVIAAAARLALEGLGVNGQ

Structure (SMILES) | IC50 [1] | IC50 [2] | IC50 [3] | IC50 [4] | IC50 [4, 5]
CC(=O)NNC(=O)[C@@H]1CC[C@@H]2CN1C(=O)N2OS(=O)(=O)O [Example 21, Sodium (2S,5R)—N′-acetyl-7-oxo-6-(sulfooxy)-1,6-diazabicyclo[3.2.1]octane-2-carbohydrazide] | 100 to 1000 nM | < 100 nM | 100 to 1000 nM | 1000 to 3000 nM | –
O=C(NNC(=O)[C@@H]1CC[C@@H]2CN1C(=O)N2OS(=O)(=O)O)c1cccnc1 [Example 45, Sodium (2S,5R)-7-oxo-N′-(pyridine-3-ylcarbonyl)-6-(sulfooxy)-1,6-diazabicyclo[3.2.1]octane-2-carbohydrazide] | 100 to 1000 nM | < 100 nM | < 100 nM | 1000 to 3000 nM | –
CS(=O)(=O)NNC(=O)[C@@H]1CC[C@@H]2CN1C(=O)N2OS(=O)(=O)O [Example 54, Sodium (2S,5R)—N′-(methylsulfonyl)-7-oxo-6-(sulfooxy)-1,6-diazabicyclo[3.2.1]octane-2-carbohydrazide] | 100 to 1000 nM | < 100 nM | < 100 nM | 100 to 1000 nM | –
C[C@@H](CN)ONC(=O)[C@@H]1CC[C@@H]2CN1C(=O)N2OS(=O)(=O)O [Example 68, (2S,5R)—N-{[(2S)-1-Aminopropan-2-yl]oxy}-7-oxo-6-(sulfooxy)-1,6-diazabicyclo[3.2.1]octane-2-carboxamide] | 100 to 1000 nM | < 100 nM | < 100 nM | – | 1000 to 3000 nM
O=C(NOCCN1CCOCC1)[C@@H]1CC[C@@H]2CN1C(=O)N2OS(=O)(=O)O [Example 72, Sodium (2S,5R)—N-[2-(morpholin-4-yl)ethoxy]-7-oxo-6-(sulfooxy)-1,6-diazabicyclo[3.2.1]octane-2-carboxamide] | 100 to 1000 nM | < 100 nM | < 100 nM | 100 to 1000 nM | –
O=C(NNC(=O)[C@@H]1CC[C@@H]2CN1C(=O)N2OS(=O)(=O)O)C1CCOCC1 [Example 34, Sodium (2S,5R)-7-oxo-6-(sulfooxy)-N′-(tetrahydro-2H-pyran-4-ylcarbonyl)-1,6-diazabicyclo[3.2.1]octane-2-carbohydrazide] | 100 to 1000 nM | < 100 nM | < 100 nM | 3000 to 10000 nM | –
CCC(=O)NNC(=O)[C@@H]1CC[C@@H]2CN1C(=O)N2OS(=O)(=O)O [Example 22, Sodium (2S,5R)-7-oxo-N′-propanoyl-6-(sulfooxy)-1,6-diazabicyclo[3.2.1]octane-2-carbohydrazide] | 100 to 1000 nM | < 100 nM | 100 to 1000 nM | 3000 to 10000 nM | –
CN(C)C(=O)NNC(=O)[C@@H]1CC[C@@H]2CN1C(=O)N2OS(=O)(=O)O [Example 47, Sodium N,N-dimethyl2-{[(2S,5R)-7-oxo-6-(sulfooxy)-1,6-diazabicyclo[3.2.1]oct-2-yl]carbonyl}hydrazinecarboxamide] | 100 to 1000 nM | < 100 nM | 100 to 1000 nM | 3000 to 10000 nM | –
Nc1ccc(CC(=O)NNC(=O)[C@@H]2CC[C@@H]3CN2C(=O)N3OS(=O)(=O)O)cc1 [Example 28, (2S,5R)—N′-[(4-Aminophenyl)acetyl]-7-oxo-6-(sulfooxy)-1,6-diazabicyclo[3.2.1]octane-2-carbohydrazide] | 100 to 1000 nM | < 100 nM | < 100 nM | – | 3000 to 10000 nM
O=C(NOCC(=O)N1CCNCC1)[C@@H]1CC[C@@H]2CN1C(=O)N2OS(=O)(=O)O [Example 90, (2S,5R)-7-Oxo-N-[2-oxo-2-(piperazin-1-yl)ethoxy]-6-(sulfooxy)-1,6-diazabicyclo[3.2.1]octane-2-carboxamide] | 100 to 1000 nM | < 100 nM | < 100 nM | – | 100 to 1000 nM
NCCCONC(=O)[C@@H]1CC[C@@H]2CN1C(=O)N2OS(=O)(=O)O [Example 69, (2S,5R)—N-(3-Aminopropoxy)-7-oxo-6-(sulfooxy)-1,6-diazabicyclo[3.2.1]octane-2-carboxamide] | 1000 to 3000 nM | < 100 nM | 100 to 1000 nM | – | 100 to 1000 nM
NNC(=O)[C@@H]1CC[C@@H]2CN1C(=O)N2OS(=O)(=O)O [Example 17, (2S,5R)-7-Oxo-6-(sulfooxy)-1,6-diazabicyclo[3.2.1]octane-2-carbohydrazide] | 100 to 1000 nM | < 100 nM | 100 to 1000 nM | – | 3000 to 10000 nM
O=C(NO[C@H]1CCNC1)[C@@H]1CC[C@@H]2CN1C(=O)N2OS(=O)(=O)O [Example 81, (2S,5R)-7-Oxo-N-[(3S)-pyrrolidin-3-yloxy]-6-(sulfooxy)-1,6-diazabicyclo[3.2.1]octane-2-carboxamide] | 100 to 1000 nM | < 100 nM | < 100 nM | – | 1000 to 3000 nM
O=C(NNC(=O)[C@@H]1CC[C@@H]2CN1C(=O)N2OS(=O)(=O)O)c1ccco1 [Example 43, Sodium (2S,5R)—N′-(furan-2-ylcarbonyl)-7-oxo-6-(sulfooxy)-1,6-diazabicyclo[3.2.1]octane-2-carbohydrazide] | 100 to 1000 nM | < 100 nM | 100 to 1000 nM | 1000 to 3000 nM | –
O=C(NNC(=O)[C@@H]1CC[C@@H]2CN1C(=O)N2OS(=O)(=O)O)[C@H]1CCCCN1 [Example 37, (2S,5R)-7-Oxo-N′-[(2R)-piperidine-2-ylcarbonyl]-6-(sulfooxy)-1,6-diazabicyclo[3.2.1]octane-2-carbohydrazide] | 1000 to 3000 nM | < 100 nM | 1000 to 3000 nM | – | 1000 to 3000 nM
O=C(NNC(=O)[C@@H]1CC[C@@H]2CN1C(=O)N2OS(=O)(=O)O)[C@@H]1CCCCN1 [Example 36, (2S,5R)-7-Oxo-N′-[(2S)-piperidine-2-ylcarbonyl]-6-(sulfooxy)-1,6-diazabicyclo[3.2.1]octane-2-carbohydrazide] | 1000 to 3000 nM | < 100 nM | 100 to 1000 nM | – | 3000 to 10000 nM
CC(C)NCCONC(=O)[C@@H]1CC[C@@H]2CN1C(=O)N2OS(=O)(=O)O [Example 64, (2S,5R)-7-Oxo-N-[2-(propan-2-ylamino)ethoxy]-6-(sulfooxy)-1,6-diazabicyclo[3.2.1]octane-2-carboxamide] | 100 to 1000 nM | < 100 nM | 100 to 1000 nM | – | 1000 to 3000 nM
CC(=O)N(C)NC(=O)[C@@H]1CC[C@@H]2CN1C(=O)N2OS(=O)(=O)O (racemic) [Example 25, Sodium (2SR,5RS)—N′-acetyl-N′-methyl-7-oxo-6-(sulfooxy)-1,6-diazabicyclo[3.2.1]octane-2-carbohydrazide] | < 100 nM | < 100 nM | 100 to 1000 nM | > 10000 nM | –
CCCNCCONC(=O)[C@@H]1CC[C@@H]2CN1C(=O)N2OS(=O)(=O)O [Example 63, (2S,5R)-7-Oxo-N-[2-(propylamino)ethoxy]-6-(sulfooxy)-1,6-diazabicyclo[3.2.1]octane-2-carboxamide] | 100 to 1000 nM | < 100 nM | 100 to 1000 nM | – | 1000 to 3000 nM
COC(=O)NNC(=O)[C@@H]1CC[C@@H]2CN1C(=O)N2OS(=O)(=O)O [Example 51, Sodium methyl 2-{[(2S,5R)-7-oxo-6-(sulfooxy)-1,6-diazabicyclo[3.2.1]oct-2-yl]carbonyl}hydrazinecarboxylate] | 100 to 1000 nM | < 100 nM | 100 to 1000 nM | 1000 to 3000 nM | –

Reference: patent publication US10556905B2, “Processes for preparing a diazabicyclooctane compound” (priority 2012, dated 2020)
